Measured values taken from patent US20230332203A1, “RAPID ANTIBIOTIC SUSCEPTIBILITY TESTING” (IOWA STATE UNIVERSITY RESEARCH FOUNDATION, INC., priority 2022, published 2023).

How the values were obtained:
[1] = test system: methicillin-resistant Staphylococcus aureus 33591; assay: Microdroplet culture with D2O labeling, average mass of PG 32:0 by MALDI-MS (Orbitrap and Biotyper); format: cell-based; conditions: range of methicillin concentrations, 20% D2O, 4 hours
Experimental: (§1) The disclosed method was tested using the Bruker Biotyper and the results were compared to data using the method that was previously established on an Orbitrap mass spectrometer. A common cell membrane lipid, phosphatidylglycerol (PG) 32:0 was used as an indicator. Since a higher average mass is indicative of more growth, a reduced average mass indicates susceptibility to methicillin. The Biotyper is an economical and more accessible instrument but has less resolution and more error in the measurements. However, data from the Biotyper results in the same conclusions when compared to data from the Orbitrap. […]
(§2) μFocus samples were analyzed in negative ion mode using an Orbitrap Q Exactive HF mass spectrometer (Thermo Scientific, San Jose, CA) with a Spectroglyph MALDI source (Spectroglyph, Kennewick, WA) equipped with a 349 nm laser (Explorer One; Spectra Physics, Milpitas, CA) using a 500 Hz repetition rate and ˜4 μJ per shot. Samples were analyzed at 120,000 resolving power at m/z 200. Spots were analyzed using 60 μm spatial resolution to ensure a good representation of the sample and resulting spectra were averaged in Xcalibur. Masslists from averaged spectra were then exported to .csv files and average mass of membrane lipids were calculated using a custom Python script. […]

[2] = test system: Staphylococcus aureus 25923 (susceptible); assay: as above; format: cell-based; conditions: increasing methicillin concentration, 20% D2O, 4 hours
Experimental: as §1, §2

For COc1cccc(OC)c1C(=O)N[C@@H]1C(=O)N2[C@@H]1SC(C)(C)[C@@H]2C(=O)O [methicillin], which “effect on average mass of PG 32:0” value [1] is on record?
Its value is “does not decrease the average mass significantly”.

And the “effect on average mass of PG 32:0” value [2]?
Its value is “constant decrease”.
